Assay results: paper PMC8145564, “Phenolic Compounds from Carissa spinarum Are Characterized by Their Antioxidant, Anti-Inflammatory and Hepatoprotective Activities” (Antioxidants, 2021)
Entries after “also recorded” stand apart in the source; their conditions may differ. Marks after values point to notes of the source that are not given here.

Key:
[1] = DPPH radical scavenging activity assay; format: biochemical; conditions: for Antioxidant potential in DPPH and FRAP (result in words): both methods (DPPH and FRAP); for IC50: isolated compounds, final concentrations 6.25 to 100 µM
Experimental: The 2,2-diphenyl-1-picrylhydrazyl (DPPH) radical scavenging abilities of the C. spinarum extracts and isolated compounds were assessed by the previously reported method. The reaction mixtures containing 190 µL DPPH solution (100 µM) and 10 µL samples (extracts or compounds) or positive control (vitamin C) solutions with various concentrations or blank control (methanol) were placed in the 96-well plate, and incubated in darkness at room temperature for 30 min. Then, the absorbance of the reaction mixture was measured by the microplate reader at 517 nm. All groups were tested in triplicate and the DPPH radical scavenging activity was calculated by the following equation:DPPH-radical scavenging percentage (%) = [(Acontrol − Asample)/Acontrol] × 100%(1)
Acontrol and Asample represent the absorbance of the blank control and samples or positive control, respectively. Additionally, the IC50 values, which were defined as the effective sample concentration when DPPH radical was scavenged by 50%, were calculated by the GraphPad Prism software.

[2] = Ferric reducing antioxidant power (FRAP) assay; format: biochemical; conditions: for FRAP total antioxidant activity (result in words): isolated compounds, 6.25 to 100 µM, positive control vitamin C
Experimental: The FRAP assay was performed according to the methodology reported in [26, 27] with minor modifications. Briefly, the FRAP working solution, composed of 300 mM acetate buffer (pH 3.6), 10 mM TPTZ solution and 20 mM FeCl3·6H2O solution in a ratio of 10:1:1 (v/v/v), was freshly prepared and warmed at 37 °C before use. Then, 190 µL FRAP working solution and 10 µL samples were added in 96-well plates and incubated at 37 °C for 10 min. The absorbance of the reaction mixture was collected by a microplate reader at 593 nm. A standard curve was established by FeSO4 at final concentrations ranging from 1.56 to 200 µM, and the total antioxidant activities of the extracts, compounds and positive controls (vitamin C) were calculated by the standard curve and expressed in terms of the FeSO4 value (µM). All the results were shown by the average values of the three biological replications.

[3] = tested on: L02 cells; assay: Hepatoprotective activity on L02 cells against H2O2-induced oxidative stress (SRB cell viability); format: cell-based; conditions: then 300 µM H2O2 for 4 h, % of normal control, H2O2 model group 68.2% (65.2% for vitamin C); for viability at 5 µM: Homo sapiens, L02, 12 h pretreatment
Experimental: The L02 cells were purchased from BeNa Culture Collection Company (BNCC, Beijing, China) and cultured in RPMI-1640 medium supplemented with 10% fetal bovine serum (FBS) and 1% penicillin–streptomycin solution at 37 °C under 5% CO2 in a humidified incubator. The H2O2 induced oxidative stress model of L02 cell was established according to the reported method with slight modifications. Firstly, 120 µL L02 cell suspension (1 × 10^4 cells) was seeded in a 96-well plate and incubated for 24 h, followed by the addition of 15 µL PBS buffer (corresponding to the addition of tested samples). […] The cell viability was evaluated by the SRB test kit (BestBio, Shanghai, China) following the manufacturer’s instructions. According to the above result, after the 24 h incubation, the L02 cells were pretreated with 15 µL samples of various concentrations or PBS (H2O2-induced model and normal control group) for 12 h. Then, 15 µL H2O2 solution (300 µM) or PBS (normal control group) was added and maintained for 4 h. Finally, the cell viability was tested by the SRB method and expressed as a percentage of the normal control group. Each group was performed in triplicate.

[4] = biological target: T1, rhCOX-2 (Homo sapiens, UniProt P35354); assay: COX-2 inhibition assay (COX-2 inhibitor screening kit, fluorescence probe method)
T1 sequence (P35354 18-604): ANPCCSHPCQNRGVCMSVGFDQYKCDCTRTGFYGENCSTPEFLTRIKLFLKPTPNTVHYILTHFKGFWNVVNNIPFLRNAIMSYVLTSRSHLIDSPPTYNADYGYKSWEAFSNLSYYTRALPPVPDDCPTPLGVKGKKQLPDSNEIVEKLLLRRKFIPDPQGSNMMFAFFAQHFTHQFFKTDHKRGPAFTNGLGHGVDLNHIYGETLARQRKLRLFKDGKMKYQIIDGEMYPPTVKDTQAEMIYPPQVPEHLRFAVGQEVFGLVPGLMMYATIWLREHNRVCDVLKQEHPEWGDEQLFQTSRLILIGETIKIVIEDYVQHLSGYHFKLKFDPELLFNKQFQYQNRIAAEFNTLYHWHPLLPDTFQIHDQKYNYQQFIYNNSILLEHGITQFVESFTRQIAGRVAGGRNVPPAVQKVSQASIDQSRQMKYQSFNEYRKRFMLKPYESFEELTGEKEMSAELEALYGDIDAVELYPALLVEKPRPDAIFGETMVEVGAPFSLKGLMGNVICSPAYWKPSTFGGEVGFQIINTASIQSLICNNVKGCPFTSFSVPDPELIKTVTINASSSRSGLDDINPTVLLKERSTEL
Experimental: COX-2 inhibition activity was screened using a commercial assay kit by the fluorescence probe method, following the manufacturer’s instructions, based on a two-step reaction: the substrate (arachidonic acid) was firstly catalyzed by COX-2 to generate PGG2, which was then further catalyzed by COX-2 to produce PGH2. During the second step, the probe without fluorescence added in the reaction system was simultaneously catalyzed to probe with strong fluorescence. […] After incubation for 10 min at 37 °C, 5 µL COX-2 substrate and 5 µL COX-2 probe were added and incubated in darkness for 10 min. Then, the fluorescence intensity was recorded by microplate reader with the excitation wavelength at 560 nm and the emission wavelength at 590 nm. The COX-2 activity inhibition percentage was calculated by the following equation: COX-2 activity inhibition (%) = [(F100% activity control − Fsample)/(F100% activity control − Fblank control)] × 100%(2) where F100% activity control, Fsample and Fblank control represent the fluorescence intensity of the 100% enzyme activity control, samples or positive control, and blank control, respectively.

[5] = tested on: L02 cells; assay: Quantitation of intracellular ROS (DCFH-DA) in H2O2-induced L02 cells; format: cell-based; conditions: 5 µM final concentration, DCFH-DA fluorescence
Experimental: The quantitation of intracellular ROS was detected by the ROS assay kit purchased from Beyotime (Shanghai, China) following the manufacturer’s instructions. The cell pretreatment was the same as hepatoprotective activity screening. Four hours later, after the addition of H2O2, the cells were incubated with 10 µM DCFH-DA (final concentration in RPMI-1640 medium) for 30 min, and were then washed three times with medium. Finally, the fluorescence intensity was recorded by a microplate reader with the excitation wavelength at 488 nm and the emission wavelength at 525 nm and then the fluorescence photos were taken by a cell imaging multi-mode reader (Cytation 1, BioTek, Winooski, VT, USA). Each group was performed in triplicate and the fluorescence values were calibrated by the corresponding cell viabilities using the SRB method.

CC(=O)c1ccccc1O[C@@H]1OC(CO[C@@H]2OC[C@@H](O)[C@H](O)[C@H]2O)[C@@H](O)[C@H](O)[C@H]1O (stereo partly drawn) [Compound 5, acetophenone-2-O-β-xylopyranosyl-(1→6)-O-β-glucopyranoside]
Antioxidant potential in DPPH and FRAP (result in words) [1]: no obvious antioxidant potential

O=C1O[C@H]([C@@H](O)CO)C(O)=C1O [Vitamin C, vitamin C, reference compound]
FRAP ([2]; extracts of C. spinarum root bark, means ± SD (n = 3)): 8.9 ± 1.2 ^b mmol Fe^2+/g | Viability of L02 cells ([3]; 5 µM, 12 h pretreatment): 82.7% | DPPH IC50 ([1]; extracts of C. spinarum root bark, 30 min, 517 nm, means ± SD (n = 3)): 4.5 ± 0.1 ^d µg/mL | IC50 ([1]; means ± SD (n = 3)): 25.5 ± 0.3 µM

COc1cc([C@@H](O)[C@H](C)O)ccc1O [Compound 7, threo-1-(3-methoxy-4-hydroxy-phenyl)-propan-1,2-diol]
FRAP total antioxidant activity (result in words) [2]: higher reducing capacities than the positive control

O=C(O)Cc1cccc(C(=O)O)c1 [Compound 8, 3-carboxymethyl-benzoic acid]
FRAP total antioxidant activity (result in words) [2]: did not show any activities | COX-2 inhibition activity (result in words) ([4]; all tested concentrations, 0.04 to 25 µM): no COX-2 ability in all tested concentrations; also recorded: did not show any activities | Antioxidant potential in DPPH and FRAP (result in words) [1]: no obvious antioxidant potential | DPPH scavenging rate at the highest tested concentration ([1]; highest tested concentration (100 µM)): lower than 10%

COc1cc([C@@H](O)[C@@H](C)O)ccc1O [Compound 6, erythro-1-(3-methoxy-4-hydroxy-phenyl)-propan-1,2-diol]
FRAP total antioxidant activity (result in words) [2]: higher reducing capacities than the positive control

COc1cc([C@H]2c3cc(O)c(OC)cc3C[C@@H](CO)[C@@H]2CO[C@@H]2O[C@H](CO)[C@@H](O)[C@H](O)[C@H]2O)ccc1O [Compound 2, (+)-isolariciresinol 3a-O-β-D-glucopyranoside]
FRAP total antioxidant activity (result in words) [2]: higher reducing capacities than the positive control | ROS quantity versus H2O2-induced model group [5]: statistically significant decreases in ROS quantity | IC50 [4]: 0.3 µM | viability at 5 µM [3]: 79.4%

O=C(O)c1ccc(O)c(O)c1 [Compound 9, protocatechuic acid]
FRAP total antioxidant activity (result in words) [2]: higher reducing capacities than the positive control | ROS quantity versus H2O2-induced model group [5]: statistically significant decreases in ROS quantity | viability at 5 µM [3]: 80.9% | IC50 ([1]; means ± SD (n = 3)): 16.5 ± 1.2 µM
